{BHQ1} = Black Hole Quencher-1 (BHQ-1) label; {FAM} = fluorescein (FAM) label
Key:
Type in all cases: biochemical
IRE-1α [1] = target: T1, IRE-1α (Homo sapiens, UniProt O75460); assay: Competition assay with 15 base wild-type dual-labeled substrate as readout
T1 construct: GST (N, cleaved yes); made in house; host or cells: baculovirus-infected insect cells
Experimental: Increasing amounts of either unlabeled wild-type (SEQ ID NO:1) or mutant 33 base substrate (SEQ ID NO:2) were incubated in the standard reaction as described in Example 2 for 1 hour at 30° C.
X-axis, fluorescence intensity; columns of Y axis, from left to right: 1, wild-type 15 base FAM BHQ-1™ substrate, no IRE-1α, and no competitor (background signal); 2, wild-type 15 base FAM BHQ-1™ substrate, no IRE-1α (background signal) plus 50 fold molar excess of unlabeled wild-type 33 base substrate (control for possible quenching of fluorophore with excess and possible hybridizing to the longer 33 base substrate); 3, wild-type 15 base FAM BHQ-1™ substrate with IRE-1α and an equivalent amount of wild-type 33 base substrate; 4, same as 3 with 2× wild-type 33 base substrate; 5, same as 3 with 5× wild-type 33 base substrate; 6, same as 3 with 10× wild-type 33 base substrate; 7, same as 3 with 20× wild-type 33 base substrate; 8, same as 3 with 50× wild-type 33 base substrate; 9, wild-type 15 base FAM BHQ-1™ substrate no IRE-1α (background signal) plus 50 fold molar excess of unlabeled mutant 33 base substrate (control for possible quenching of fluorophore with excess and possible hybridizing to the longer 33 base substrate (essentially the same as 2); 10, wild-type 15 base FAM BHQ-1™ substrate with IRE-1α and an equivalent amount of mutant 33 base substrate; 11, same as 3 with 2×33 base mutant substrate; 12, same as 3 with 5×33 base mutant substrate; 13, same as 3 with 10×33 base mutant substrate; 14, same as 3 with 20×33 base mutant substrate; 15, same as 3 with 50×33 base mutant substrate; 16, wild-type 15 base FAM BHQ-1™ substrate with IRE-1α (positive control).

IRE-1α [2] = target: T1, IRE-1α; assay: IRE-1α RNase activity assay, reaction products separated on denaturing gel
IRE-1α [3] = target: T1, IRE-1α; assay: High-throughput screening assay of IRE-1α RNase activity; conditions: for fluorescence signal, average: 384-well plates
Experimental: Five μl of a reaction mixture comprising 1× reaction buffer (5× reaction buffer is 100 mM Hepes pH 7.5, 250 mM KOAc, 2.5 mM MgCl2), 3 mM DTT, and 0.4% polyethylene glycol water were added to each well of 384 well plates. Twenty-five nanoliters of a 1 mM test compound solution were added to test wells. Three μl of a […] IRE-1α preparation were added to each test well and to positive control wells (final concentration 5.82 ng/well). Negative control wells contained only reaction mixture and test compound.
After spinning the plates at 1200 rpm for 30 seconds, 3 μl of a 63 nM wild-type IRE-1α substrate or 3 μl of a 63 nM mutant IRE-1α substrate diluted to 48 nM were added to each well of a control plate. The plates were again spun at 1200 rpm for 30 seconds. Final concentrations for the assay were: 63 nM wild-type IRE-1α substrate (or 48 nM mutant IRE-α substrate), 5.82 ng IRE-1α protein, and 2.5 μM test compound.
The plates were covered with lids and incubated for one hour at 30° C. The plates were then transferred to an ACQUEST™ microplate reader. Data was analyzed using data analysis software. The percent activity of IRE-1α was calculated using the following equation: […]
A Beckman Biomek FX robot was used to load all components of the reaction into 384-well plates in the following order: buffer with test compound, IRE-1α, and substrate into 384-well plates. Controls with substrate alone and substrate with IRE-1α were used to calibrate signal to noise ratio and variability between wells (first two left hand rows respectively, in FIG. 6). The two far right lanes in FIG. 6 contain the mutant 15 base dual-labeled substrate with and without IRE-1α as a quality control check for RNase contamination.

IRE-1α [4] = target: T1, IRE-1α; assay: Kinetics of IRE-1α-mediated substrate cleavage; conditions: 20 nM purified IRE-1α, 63 nM substrate, 60 minute incubation, 30° C.
Experimental: Kinetics of IRE-1α-mediated substrate cleavage were measured in an assay as described above using purified active IRE-1α and the wild-type 15 base FAM-BHQ-1™-labeled substrate. The plate was incubated at 30° C. and read every 5 minutes.
These conditions result in a signal of 60,000 units, which is approximately 75% of the full 80,000 unit signal.

[5] = with IRE-1α, no PEG, FIG. 3 lanes 3-4
[6] = with IRE-1α, with PEG, FIG. 3 lanes 7-8
[7] = with IRE-1α added, FIG. 3 lanes 13-14

T1 sequence (O75460 with tags, fused parts or gaps): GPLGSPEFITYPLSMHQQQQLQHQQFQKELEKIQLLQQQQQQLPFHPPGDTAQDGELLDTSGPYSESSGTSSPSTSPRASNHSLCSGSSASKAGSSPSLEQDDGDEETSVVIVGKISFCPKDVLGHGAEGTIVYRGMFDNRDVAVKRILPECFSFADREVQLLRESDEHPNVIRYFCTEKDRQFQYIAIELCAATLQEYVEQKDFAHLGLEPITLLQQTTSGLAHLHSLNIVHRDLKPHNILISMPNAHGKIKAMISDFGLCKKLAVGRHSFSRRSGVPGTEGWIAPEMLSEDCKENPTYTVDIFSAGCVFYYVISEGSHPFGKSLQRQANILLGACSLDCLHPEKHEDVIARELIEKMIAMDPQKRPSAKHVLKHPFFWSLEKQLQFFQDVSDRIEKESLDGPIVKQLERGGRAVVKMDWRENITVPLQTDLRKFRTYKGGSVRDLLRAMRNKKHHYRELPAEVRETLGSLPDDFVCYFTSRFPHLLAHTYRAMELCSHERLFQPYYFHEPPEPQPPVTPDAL

Row | Substance | cleavage of substrate by IRE-1α (gel) (IRE-1α [2]; [5]) | cleavage of substrate by IRE-1α (gel) (IRE-1α [2]; [6]) | signal from cleaved FAM-BHQ1 labeled substrate (gel) (IRE-1α [2]; [7]) | fluorescence signal, average (IRE-1α [3]; substrate alone (no IRE-1α)) | fluorescence signal, average (IRE-1α [3]; substrate and IRE-1α) | other results
1 | 5′-GGGUCUGCUGAGUCCCCAG-CACUCAGAAGGCCC-3′ (GGGUCUGCUGAGUCCCCAGCACUCAGAAGGCCC; chemistry not given here) [33 base mutant substrate] | does not cut | does not cut |  |  |  | inhibitory activity (fluorescence intensity) (IRE-1α [1]; similar concentrations (ten-fold to 50-fold excess) of unlabeled competitor): no inhibitory activity
2 | 5′-CAGUCCCCAGCACUG-3′ (chemistry not fully specified) [15 base mutant substrate, 15 base mutant substrate with 5′ FAM and 3′ BHQ-1 moieties] |  |  | no signal | 10393 | 10516 | 
3 | 5′-CAGUCCGCAGCACUG-3′ (5' {FAM}, 3' {BHQ1}, sugars by position and backbone not given here) [15 base wild-type substrate, 15 base wild-type substrate with 5′ FAM and 3′ BHQ-1 moieties] |  |  | signal | 12305 | 50076 | signal from cleaved FAM-BHQ1 labeled substrate (gel) (IRE-1α [2]; IRE-1α added diluted to 1:3, FIG. 3 lane 15): signal; signal (IRE-1α [4]; 10 μl reaction volume): 60,000 units; signal as share of the full 80,000 unit signal (IRE-1α [4]; 10 μl): approximately 75%; ratio of positive control over background (IRE-1α [3]; wild-type substrate and IRE-1α over substrate alone): 4.07
4 | 5′-GGGUCUGCUGAGUCCGCAGCACUCAGAAGGCCC-3′ (chemistry not given here) [33 base wild-type substrate, 33 base wild-type stem-loop RNA substrate for IRE-1α] | cuts | cuts |  |  |  | inhibitory activity (fluorescence intensity) (IRE-1α [1]; 50-fold excess of unlabeled competitor, 1 hour at 30° C.): greater than 50%; competition with the 15 base IRE-1α substrate, inhibition of fluorescence intensity (IRE-1α [1]; ten-fold molar excess of unlabeled competitor, 1 hour at 30° C.): begins to compete; cleavage of substrate by IRE-1α (gel) (IRE-1α [2]; IRE-1α diluted 1:3, with PEG, FIG. 3 lane 9): cuts; cleavage of substrate by IRE-1α (gel) (IRE-1α [2]; IRE-1α diluted 1:12, with PEG, FIG. 3 lane 10): cuts; digestion of 33 base stem-loop substrate by IRE-1α (lower molecular weight band) (IRE-1α [2]; recombinant purified human IRE-1α, FIG. 3C): digested

From patent US8124343B2, “IRE-1α substrates” (MannKind Corporation, priority 2005, dated 2012)
